From ChEMBL document CHEMBL2146430, “Rational evolution of a novel type of potent and selective proviral integration site in Moloney murine leukemia virus kinase 1 (PIM1) inhibitor from a screening-hit compound” (J Med Chem, 2012)
Blank lines part the entries; values can stand above or below the compound they belong to. Calls of active or inactive are those of the source. The calls are words filed in the database; no cut-off is given here.

Key:
[1] = target: T1, Serine/threonine-protein kinase pim-1 (Homo sapiens, UniProt P11309); assay: Inhibition of PIM1 using 5-FAM-RSRHSSYPAGT-CONH2 as substrate after 2 hrs by electrophoretic mobility shift assay
Target sequence in this assay (P11309 whole entry): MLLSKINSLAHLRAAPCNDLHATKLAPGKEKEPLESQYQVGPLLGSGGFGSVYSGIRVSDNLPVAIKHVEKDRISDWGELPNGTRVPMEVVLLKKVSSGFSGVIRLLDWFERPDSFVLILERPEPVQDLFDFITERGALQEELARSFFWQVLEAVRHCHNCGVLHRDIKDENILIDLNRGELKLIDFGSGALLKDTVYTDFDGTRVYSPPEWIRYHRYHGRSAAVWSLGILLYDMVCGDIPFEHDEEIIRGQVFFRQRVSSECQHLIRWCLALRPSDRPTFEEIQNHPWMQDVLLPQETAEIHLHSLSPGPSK

[2] = target: T1, Serine/threonine-protein kinase pim-1; assay: Inhibition of PIM1 at 200 nM by electrophoretic mobility shift assay
Target sequence in this assay (P11309 whole entry, looked up): as the sequence (P11309 whole entry) above

[3] = target: Death-associated protein kinase 1 (Homo sapiens) (UniProt P53355); assay: Inhibition of DAPK1 at 200 nM by electrophoretic mobility shift assay
[4] = target: Platelet-derived growth factor receptor alpha (Homo sapiens) (UniProt P16234); assay: Inhibition of PDGFRalpha at 200 nM by electrophoretic mobility shift assay
Sequence of Platelet-derived growth factor receptor alpha (Homo sapiens) (P16234 whole entry): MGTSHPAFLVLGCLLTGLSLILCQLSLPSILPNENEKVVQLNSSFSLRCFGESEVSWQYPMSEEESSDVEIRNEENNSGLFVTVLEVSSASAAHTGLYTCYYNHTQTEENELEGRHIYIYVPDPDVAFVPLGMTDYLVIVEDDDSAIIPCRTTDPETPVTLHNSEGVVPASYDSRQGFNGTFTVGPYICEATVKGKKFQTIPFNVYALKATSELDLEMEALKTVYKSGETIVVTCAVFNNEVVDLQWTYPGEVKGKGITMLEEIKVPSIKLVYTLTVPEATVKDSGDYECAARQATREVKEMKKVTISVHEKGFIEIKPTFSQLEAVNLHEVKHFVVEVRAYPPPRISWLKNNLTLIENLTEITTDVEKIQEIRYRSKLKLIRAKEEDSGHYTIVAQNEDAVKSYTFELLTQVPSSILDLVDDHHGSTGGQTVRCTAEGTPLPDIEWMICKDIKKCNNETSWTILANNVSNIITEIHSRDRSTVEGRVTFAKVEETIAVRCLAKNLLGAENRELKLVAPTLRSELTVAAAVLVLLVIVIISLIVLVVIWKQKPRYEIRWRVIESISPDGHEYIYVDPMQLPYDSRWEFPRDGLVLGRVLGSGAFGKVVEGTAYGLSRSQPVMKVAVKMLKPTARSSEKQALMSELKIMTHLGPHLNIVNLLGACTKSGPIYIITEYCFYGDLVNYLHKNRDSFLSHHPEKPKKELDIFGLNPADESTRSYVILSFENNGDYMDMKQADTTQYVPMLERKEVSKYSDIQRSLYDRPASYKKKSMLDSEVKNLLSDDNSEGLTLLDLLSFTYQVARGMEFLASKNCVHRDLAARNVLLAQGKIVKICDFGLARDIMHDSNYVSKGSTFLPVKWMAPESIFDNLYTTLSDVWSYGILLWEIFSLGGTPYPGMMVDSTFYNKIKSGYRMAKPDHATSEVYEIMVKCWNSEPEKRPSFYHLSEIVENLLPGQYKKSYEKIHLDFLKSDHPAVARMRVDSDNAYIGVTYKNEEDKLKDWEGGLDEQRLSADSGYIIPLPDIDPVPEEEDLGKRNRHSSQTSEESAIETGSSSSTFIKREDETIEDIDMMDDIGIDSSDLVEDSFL

[5] = target: Rho-associated protein kinase 1 (Homo sapiens) (UniProt Q13464); assay: Inhibition of ROCK1 at 200 nM by electrophoretic mobility shift assay
[6] = target: T2, Serine/threonine-protein kinase pim-3 (Homo sapiens, UniProt Q86V86); assay: Inhibition of PIM3 at 200 nM by electrophoretic mobility shift assay
[7] = target: Serine/threonine-protein kinase D2 (Homo sapiens) (UniProt Q9BZL6); assay: Inhibition of PKD2 at 200 nM by electrophoretic mobility shift assay
[8] = target: Protein kinase C alpha type (Homo sapiens) (UniProt P17252); assay: Inhibition of PKCalpha at 200 nM by electrophoretic mobility shift assay
[9] = target: Glycogen synthase kinase-3 beta (Homo sapiens) (UniProt P49841); assay: Inhibition of GSK3beta at 200 nM by electrophoretic mobility shift assay
[10] = target: T3, Serine/threonine-protein kinase pim-2 (Homo sapiens, UniProt Q9P1W9); assay: Inhibition of PIM2 at 200 nM by electrophoretic mobility shift assay
Target sequence in this assay (Q9P1W9 whole entry, looked up): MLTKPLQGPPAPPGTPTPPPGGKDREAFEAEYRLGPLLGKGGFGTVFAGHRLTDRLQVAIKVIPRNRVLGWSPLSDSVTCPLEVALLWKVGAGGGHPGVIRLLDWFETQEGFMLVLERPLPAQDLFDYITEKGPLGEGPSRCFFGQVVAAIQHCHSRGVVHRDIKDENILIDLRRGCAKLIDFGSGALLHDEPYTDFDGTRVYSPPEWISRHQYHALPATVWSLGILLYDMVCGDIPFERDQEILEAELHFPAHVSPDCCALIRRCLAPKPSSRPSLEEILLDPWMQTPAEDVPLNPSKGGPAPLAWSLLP

[11] = target: Receptor-type tyrosine-protein kinase FLT3 (Homo sapiens) (UniProt P36888); assay: Inhibition of FLT3 at 200 nM by electrophoretic mobility shift assay
Sequence of Receptor-type tyrosine-protein kinase FLT3 (Homo sapiens) (P36888 whole entry): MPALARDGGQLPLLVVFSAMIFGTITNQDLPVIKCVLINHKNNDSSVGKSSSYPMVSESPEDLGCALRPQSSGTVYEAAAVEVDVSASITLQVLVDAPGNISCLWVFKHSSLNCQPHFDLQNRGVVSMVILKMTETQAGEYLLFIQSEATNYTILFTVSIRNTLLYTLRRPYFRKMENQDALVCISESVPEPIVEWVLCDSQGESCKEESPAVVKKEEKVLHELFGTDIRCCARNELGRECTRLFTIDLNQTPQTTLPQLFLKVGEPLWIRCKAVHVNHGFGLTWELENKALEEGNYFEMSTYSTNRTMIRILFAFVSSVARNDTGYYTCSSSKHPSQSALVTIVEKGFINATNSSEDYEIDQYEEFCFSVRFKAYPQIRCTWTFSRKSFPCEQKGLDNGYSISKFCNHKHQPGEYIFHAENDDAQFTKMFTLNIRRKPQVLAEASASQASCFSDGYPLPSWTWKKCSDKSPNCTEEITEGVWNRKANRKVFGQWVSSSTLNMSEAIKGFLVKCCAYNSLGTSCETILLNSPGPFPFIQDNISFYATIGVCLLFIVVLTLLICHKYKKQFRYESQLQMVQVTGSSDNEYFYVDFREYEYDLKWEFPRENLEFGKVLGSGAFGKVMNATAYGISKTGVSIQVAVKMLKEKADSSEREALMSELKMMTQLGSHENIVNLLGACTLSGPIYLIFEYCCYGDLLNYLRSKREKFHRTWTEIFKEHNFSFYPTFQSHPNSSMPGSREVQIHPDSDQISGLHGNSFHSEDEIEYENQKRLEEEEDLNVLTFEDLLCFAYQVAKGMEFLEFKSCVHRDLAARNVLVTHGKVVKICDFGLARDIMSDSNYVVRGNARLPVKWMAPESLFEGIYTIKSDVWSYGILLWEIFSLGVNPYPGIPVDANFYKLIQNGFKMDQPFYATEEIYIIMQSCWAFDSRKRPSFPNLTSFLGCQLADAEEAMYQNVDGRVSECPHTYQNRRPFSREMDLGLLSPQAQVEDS

MV4-11 [12] = assay: Growth inhibition of human MV4-11 cells after 48 hrs; assay type: functional; conditions: MV4-11, 48 h
[13] = target: Platelet-derived growth factor receptor alpha (Homo sapiens) (UniProt P16234); assay: Inhibition of PDGFRalpha at 600 nM by electrophoretic mobility shift assay
[14] = target: T1, Serine/threonine-protein kinase pim-1; assay: Inhibition of PIM1 at 600 nM by electrophoretic mobility shift assay
Target sequence in this assay (P11309 whole entry, looked up): as the sequence (P11309 whole entry) above

[15] = target: Tyrosine-protein kinase SYK (Homo sapiens) (UniProt P43405); assay: Inhibition of SYK at 600 nM by electrophoretic mobility shift assay
[16] = Metabolic stability in mouse liver microsomes assessed as compound remaining at 1 uM after 1 hr; assay type: ADME, Microsome; conditions: read-out: Stability
[17] = target: T2, Serine/threonine-protein kinase pim-3; assay: Inhibition of PIM3 at 600 nM by electrophoretic mobility shift assay
[18] = target: T3, Serine/threonine-protein kinase pim-2; assay: Inhibition of PIM2 at 600 nM by electrophoretic mobility shift assay
Target sequence in this assay (Q9P1W9 whole entry, looked up): as the sequence (Q9P1W9 whole entry, looked up) above

[19] = target: Receptor-type tyrosine-protein kinase FLT3 (Homo sapiens) (UniProt P36888); assay: Inhibition of FLT3 at 600 nM by electrophoretic mobility shift assay
[20] = Metabolic stability in human liver microsomes assessed as compound remaining at 1 uM after 1 hr; assay type: ADME, Microsome; conditions: read-out: Stability
[21] = target: T2, Serine/threonine-protein kinase pim-3; conditions: 250 nM
Description: Inhibition of PIM3 at 250 nM by electrophoretic mobility shift assay

[22] = target: T3, Serine/threonine-protein kinase pim-2; conditions: 250 nM
Target sequence in this assay (Q9P1W9 whole entry, looked up): as the sequence (Q9P1W9 whole entry, looked up) above
Description: Inhibition of PIM2 at 250 nM by electrophoretic mobility shift assay

CYP2C9 = CYP2C9 (Homo sapiens, UniProt P11712); assay: Inhibition of CYP2C9 at 10 uM; assay type: ADME
[23] = target: Receptor-type tyrosine-protein kinase FLT3 (Homo sapiens) (UniProt P36888); assay: Inhibition of FLT3 at 300 nM by electrophoretic mobility shift assay
[24] = target: Receptor-type tyrosine-protein kinase FLT3 (Homo sapiens, UniProt P36888); assay: Inhibition of FLT3 by electrophoretic mobility shift assay
CYP2D6 = CYP2D6 (Homo sapiens, UniProt P10635); assay: Inhibition of CYP2D6 at 10 uM; assay type: ADME
CYP3A4 = CYP3A4 (Homo sapiens, UniProt P08684); assay: Inhibition of CYP3A4 at 10 uM; assay type: ADME
[25] = target: T3, Serine/threonine-protein kinase pim-2; assay: Inhibition of PIM2 by electrophoretic mobility shift assay
[26] = Metabolic stability in mouse hepatocytes assessed as compound remaining at 1 uM after 2 hrs; assay type: ADME, cell-based, Hepatocyte; conditions: read-out: Stability
hERG (KCNH2) [27] = target: T4, hERG (KCNH2) (Homo sapiens, UniProt Q12809); assay: Inhibition of human ERG at 1 uM by patch clamp assay
T4 sequence (Q12809 whole entry): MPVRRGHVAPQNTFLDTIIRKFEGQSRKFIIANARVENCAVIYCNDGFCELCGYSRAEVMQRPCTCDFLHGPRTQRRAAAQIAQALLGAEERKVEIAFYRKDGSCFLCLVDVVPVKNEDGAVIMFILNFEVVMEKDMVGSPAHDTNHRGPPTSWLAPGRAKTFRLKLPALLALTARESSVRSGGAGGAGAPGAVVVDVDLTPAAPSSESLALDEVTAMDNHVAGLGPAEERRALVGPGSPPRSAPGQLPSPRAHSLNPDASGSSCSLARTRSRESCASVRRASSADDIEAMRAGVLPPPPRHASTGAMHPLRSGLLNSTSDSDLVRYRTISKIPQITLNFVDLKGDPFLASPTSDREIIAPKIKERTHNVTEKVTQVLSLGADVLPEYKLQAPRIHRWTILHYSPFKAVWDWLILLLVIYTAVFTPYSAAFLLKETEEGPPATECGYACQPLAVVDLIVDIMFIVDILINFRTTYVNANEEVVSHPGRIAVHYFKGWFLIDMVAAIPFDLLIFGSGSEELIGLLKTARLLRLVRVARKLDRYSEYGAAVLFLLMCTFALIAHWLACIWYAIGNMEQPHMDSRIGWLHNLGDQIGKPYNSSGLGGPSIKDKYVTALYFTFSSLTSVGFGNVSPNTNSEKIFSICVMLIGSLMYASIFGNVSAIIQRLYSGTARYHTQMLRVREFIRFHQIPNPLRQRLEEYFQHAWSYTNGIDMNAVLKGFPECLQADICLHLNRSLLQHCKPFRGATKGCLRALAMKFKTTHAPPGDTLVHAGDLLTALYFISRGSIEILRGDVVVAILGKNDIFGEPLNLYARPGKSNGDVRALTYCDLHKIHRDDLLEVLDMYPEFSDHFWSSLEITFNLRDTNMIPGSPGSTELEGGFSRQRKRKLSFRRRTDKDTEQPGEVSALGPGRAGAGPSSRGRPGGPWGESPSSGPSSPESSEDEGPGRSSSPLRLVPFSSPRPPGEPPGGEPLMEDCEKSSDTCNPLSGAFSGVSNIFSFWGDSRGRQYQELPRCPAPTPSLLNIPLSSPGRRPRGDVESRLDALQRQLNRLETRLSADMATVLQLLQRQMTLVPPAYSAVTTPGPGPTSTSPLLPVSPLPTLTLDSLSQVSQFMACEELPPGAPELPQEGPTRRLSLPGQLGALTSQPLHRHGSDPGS

WI-38 = assay: Growth inhibition of human WI38 cells after 48 hrs; assay type: cell-based; conditions: wi-38, 48 h
[28] = target: T1, Serine/threonine-protein kinase pim-1; assay: Inhibition of PIM1 by electrophoretic mobility shift assay
Target sequence in this assay (P11309 whole entry): as the sequence (P11309 whole entry) above

hERG (KCNH2) [29] = target: T4, hERG (KCNH2); assay: Inhibition of human ERG at 10 uM by patch clamp assay
[30] = target: T1, Serine/threonine-protein kinase pim-1; conditions: MV4-11, 0.01 to 10 uM
Target sequence in this assay (P11309 whole entry, looked up): as the sequence (P11309 whole entry) above
Description: Inhibition of PIM1-mediated BAD phosphorylation at ser136 in human MV4-11 cells at 0.01 to 10 uM after 1 hr by Western blotting

CYP2C19 = CYP2C19 (Homo sapiens, UniProt P33261); assay: Inhibition of CYP2C19 at 10 uM; assay type: ADME
MV4-11 [31] = assay: Induction of apoptosis in human MV4-11 cells after 48 hrs by annexin V/propidium iodide staining based flow cytometric analysis; assay type: functional, cell-based
[32] = target: T2, Serine/threonine-protein kinase pim-3; assay: Inhibition of PIM3 by electrophoretic mobility shift assay
CYP1A2 = CYP1A2 (Homo sapiens, UniProt P05177); assay: Inhibition of CYP1A2 at 10 uM; assay type: ADME
[33] = target: T1, Serine/threonine-protein kinase pim-1; conditions: 300 nM
Target sequence in this assay (P11309 whole entry, looked up): as the sequence (P11309 whole entry) above
Description: Inhibition of PIM1 at 300 nM by electrophoretic mobility shift assay

[34] = target: T2, Serine/threonine-protein kinase pim-3; assay: Inhibition of PIM3 at 300 nM by electrophoretic mobility shift assay
[35] = target: T3, Serine/threonine-protein kinase pim-2; assay: Inhibition of PIM2 at 300 nM by electrophoretic mobility shift assay
Target sequence in this assay (Q9P1W9 whole entry, looked up): as the sequence (Q9P1W9 whole entry, looked up) above

MV4-11 [36] = assay: Cell cycle arrest in human MV4-11 cells assessed as accumulation at G1 phase after 48 hrs by flow cytometry; assay type: functional, cell-based
[37] = target: Serine/threonine-protein kinase 4 (Homo sapiens) (UniProt Q13043); assay: Inhibition of MST1 at 22500 nM by electrophoretic mobility shift assay
[38] = target: Vascular endothelial growth factor receptor 2 (Homo sapiens) (UniProt P35968); assay: Inhibition of KDR at 22500 nM by electrophoretic mobility shift assay
[39] = target: Platelet-derived growth factor receptor alpha (Homo sapiens) (UniProt P16234); assay: Inhibition of PDGFRalpha at 22500 nM by electrophoretic mobility shift assay
[40] = target: Mitogen-activated protein kinase kinase kinase 9 (Homo sapiens) (UniProt P80192); assay: Inhibition of MLK1 at 22500 nM by ELISA
[41] = target: T3, Serine/threonine-protein kinase pim-2; assay: Inhibition of PIM2 at 22500 nM by electrophoretic mobility shift assay
Target sequence in this assay (Q9P1W9 whole entry, looked up): as above

[42] = target: T2, Serine/threonine-protein kinase pim-3; assay: Inhibition of PIM3 at 22500 nM by electrophoretic mobility shift assay
[43] = target: Epidermal growth factor receptor (Homo sapiens) (UniProt P00533); assay: Inhibition of EGFR at 22500 nM by electrophoretic mobility shift assay
[44] = target: Tyrosine-protein kinase SYK (Homo sapiens) (UniProt P43405); assay: Inhibition of SYK at 22500 nM by electrophoretic mobility shift assay
[45] = target: Receptor-type tyrosine-protein kinase FLT3 (Homo sapiens) (UniProt P36888); assay: Inhibition of FLT3 at 22500 nM by electrophoretic mobility shift assay
[46] = target: Aurora kinase A (Homo sapiens) (UniProt O14965); assay: Inhibition of Aurora A at 22500 nM by electrophoretic mobility shift assay
[47] = target: Glycogen synthase kinase-3 beta (Homo sapiens) (UniProt P49841); assay: Inhibition of GSK3beta at 22500 nM by electrophoretic mobility shift assay
[48] = target: T1, Serine/threonine-protein kinase pim-1; assay: Inhibition of PIM1 at 22500 nM by electrophoretic mobility shift assay
Target sequence in this assay (P11309 whole entry, looked up): as the sequence (P11309 whole entry) above

IC50 [1]: 43 nM
Structure (SMILES): O=C1/C(=C/c2c[nH]c3ccccc23)Oc2c1ccc(OCc1ccccc1)c2CN1CCNCC1

inhibition [2]: > 99% | inhibition [4]: Active | inhibition [5]: Active | inhibition [6]: 99% | inhibition [7]: Active | inhibition [8]: Active | inhibition [9]: Active | IC50 [1]: 2 nM | inhibition [10]: 39% | inhibition [11]: Active
Structure (SMILES): COc1ccc2c(c1CN1CCNCC1)O/C(=C\c1c[nH]c3ncccc13)C2=O
inhibition [3]: Active

IC50 [1]: 102 nM
Structure (SMILES): O=C1/C(=C/c2c[nH]c3ccccc23)Oc2c1ccc(O)c2CN1CCCNCC1

IC50 [1]: 20 nM
Structure (SMILES): O=C1/C(=C/c2c[nH]c3ccccc23)Oc2c(CN3CCNCC3)cccc21

GI50 (MV4-11 [12]): 270 nM | inhibition [13]: Active | inhibition [14]: 98% | inhibition [15]: Active | remaining at 1 h, 1 µM [16]: 71% | IC50 [1]: 17 nM | inhibition [17]: 97% | inhibition [18]: 30% | inhibition [19]: Active | remaining at 1 h, 1 µM [20]: 90%
Structure (SMILES): O=C1/C(=C/c2c[nH]c3ccccc23)Oc2c1ccc(O)c2CN1CCNCC1

IC50 [1]: 388 nM
Structure (SMILES): CN1CCN(Cc2c(O)ccc3c2O/C(=C\c2c[nH]c4ccccc24)C3=O)CC1

GI50 (MV4-11 [12]): 95 nM | inhibition [21]: 98% | remaining at 1 h, 1 µM [16]: 86% | inhibition [22]: 30% | remaining at 1 h, 1 µM [20]: 82%
Structure (SMILES): COc1ccc2c(c1CN1CCNCC1)O/C(=C\c1c[nH]c3ccccc13)C2=O

inhibition at 10 µM (CYP2C9): < 1% | inhibition [23]: Active | IC50 [24]: 47 nM | GI50 (MV4-11 [12]): 43 nM | inhibition at 10 µM (CYP2D6): 11% | inhibition at 10 µM (CYP3A4): 10% | IC50 [25]: 1160 nM | remaining at 2 h, 1 µM [26]: 89% | IC50 [28]: 6 nM | inhibition [30]: inactive | remaining at 1 h, 1 µM [16]: 92% | inhibition at 10 µM (CYP2C19): 54% | IC50 [32]: 13 nM | IC50 [1]: 3 nM | inhibition at 10 µM (CYP1A2): 33% | inhibition [33]: 99% | inhibition [34]: 98% | inhibition [35]: 19% | remaining at 1 h, 1 µM [20]: > 99%
Structure (SMILES): COc1ccc2c(c1CN1CCNCC1)O/C(=C\c1n[nH]c3ccccc13)C2=O
inhibition at 1 µM (hERG (KCNH2) [27]): 13% | Activity (WI-38): Non-toxic | inhibition at 10 µM (hERG (KCNH2) [29]): 60% | Activity (MV4-11 [31]): Dose-dependent effect | Activity (MV4-11 [36]): Dose-dependent effect

IC50 [1]: 6 nM
Structure (SMILES): CCOc1ccc2c(c1CN1CCNCC1)O/C(=C\c1c[nH]c3ccccc13)C2=O

IC50 [1]: 12 nM
Structure (SMILES): CCCOc1ccc2c(c1CN1CCNCC1)O/C(=C\c1c[nH]c3ccccc13)C2=O

inhibition [37]: Active | inhibition [38]: Active | inhibition [39]: Active | inhibition [40]: Active | inhibition [41]: 46% | inhibition [42]: 88% | inhibition [43]: Active | inhibition [44]: Active | inhibition [45]: Active | inhibition [46]: Active | remaining at 1 h, 1 µM [16]: 44% | inhibition [47]: Active | IC50 [1]: 410 nM | inhibition [48]: 77% | remaining at 1 h, 1 µM [20]: 36%
Structure (SMILES): O=C1/C(=C/c2c[nH]c3ccccc23)Oc2c1ccc(O)c2CN1CCCCCC1

IC50 [1]: 447 nM
Structure (SMILES): COc1ccc2c(c1CN1CCNCC1)O/C(=C\c1c[nH]c3cccnc13)C2=O

IC50 [1]: 53 nM
Structure (SMILES): COc1ccc2c(c1CN1CCNCC1)O/C(=C\c1c[nH]c3ccncc13)C2=O
